From patent EP1531819B1, “USE OF I kappa B KINASE INHIBITORS FOR THE TREATMENT OF PAIN” (Sanofi-Aventis Deutschland GmbH, priority 2002, dated 2004)

Columns and labels:
[1] = tested on: Kaolin/Carrageenan induzierte Kniegelenksentzündung bei der Ratte; assay: Model 2: kaolin/carrageenan-induced knee joint inflammation, responses of spinal neurons to pressure on the knee; type: in vivo
Description: Modell: Zymosan-induzierte Pfotenentzündung bei der Ratte; Parameter: Pfotenwegziehzeit oder Pfotenwegziehschwelle bei thermischer oder mechanischer Stimulation der Hinterpfote. • 2. Modell: Kaolin/Carrageenan induzierte Kniegelenksentzündung bei der Ratte; Parameter: Reaktion spinaler Neurone bei Druckreizung des Knies.
Versuchsdurchführung: Bei Ratten wurde in Trapanal-Narkose der Wirbelkanal eröffnet und Rückenmarksneurone, die "Schmerzimpulse" aus dem Kniegelenk verarbeiteten, identifiziert. Nach Identifizierung wurde eine Langzeitableitung durchgeführt, in der die Aktivität der Nervenzelle vor und während der Entwicklung einer akuten Entzündung im Kniegelenk registriert wurde. Dazu wurden in einer Kontrollperiode vor Induktion der Entzündung und nach Induktion der Entzündung für mehrere Stunden die Antworten auf nicht noxische und noxische Reizung am Kniegelenk gemessen.
Die akute Entzündung wurde durch die intraartikuläre Injektion einer Kaolin und Carrageenan Suspension (etwa 150 µl) induziert. In Kontrollexperimenten wurde nur das Vehikel auf die Rückenmarksoberfläche aufgebracht, um die Entwicklung der Übererregbarkeit unter Kontrollbedingungen darzustellen. In der Regel fand diese Entwicklung der Übererregbarkeit innerhalb von 2 bis 4 Stunden statt, und sie äußerte sich in einer starken Zunahme der Antworten auf nicht noxische und noxische Reizung des Kniegelenks (Tab. 3). […] Dann wurden die Antworten der Zelle auf nichtnoxische und noxische Reizung wie in den Kontrollexperimenten weiter verfolgt.

[2] = tested on: Zymosan-induzierte Pfotenentzündung bei der Maus; assay: Model 3: zymosan-induced paw inflammation, paw withdrawal latency on thermal stimulation (Hargreaves Test), AUC; type: in vivo; settings: for AUC Mittelwert [Maß für Hyperalgesie]: thermische Hyperalgesie
Description: Parameter: Pfotenwegziehzeit bei thermischer Stimulation der Hinterpfote. Versuchsdurchführung: In Kurzzeitnarkose mit Isofluran wurde dem Versuchstier 25 μl einer Suspension, die 50 mg/ml Zymosan enthielt, in die rechte Hinterpfote injiziert. Dann wurde die […] quantitativ wie folgt bestimmt: Bestimmung der Pfotenwegziehzeit bei thermischer Stimulation (Hargreaves Test; s.o.). Das Versuchstier wurde in […] Versuchstier nach der Erkundungsphase (etwa 5 min) nicht mehr bewegte, wurde […] zu stimulierenden Hinterpfote positioniert und […]. Die […] ab, so dass die Hauttemperatur […] linear […] Pfote […] ab. Die Pfotentemperatur zum Zeitpunkt des Wegziehens ist für das Tier gerade eben unangenehm, […] von thermischer Schmerzschwelle. Kurz vor Zymosan-Injektion und für 7 bis 14 Tage nach Injektion wurde […] an der rechten und linken Hinterpfote bestimmt. Anschließend wurde […] Integral der Fläche, die aus […] und […] Pfote gebildet wurde, bestimmt (AUC, area between the curves, s. Tabellen 5 und 6). Je größer dieser Wert ist, umso […], und je kleiner der Wert bei Tieren, die die Substanz erhalten, desto stärker ist der Therapieerfolg. In einer 7-Tage Studie induzierte die Zymosan Injektion in […], Tab. 5). In den anderen Gruppen wurde die Substanzgabe einen Tag nach Zymosan Injektion, […] schon […]. […] Die […] Studie (7 Tage) ergab, dass die AUC unter Substanzgabe dosisabhängig abnahm. […] In einer parallel […] von Tieren wurde Paracetamol in einer sehr hohen Dosis ebenfalls zweimal am Tag verabreicht. […] Paracetamol (Tab. 5). […] […] Zymosan Injektion und Dosierschema […] zuvor beschriebenen Studie. Einziger Unterschied war, dass die weitere Studie über 14 Tage lief.

[3] = tested on: Zymosan-induzierte Pfotenentzündung bei der Maus; assay: Model 4: zymosan-induced paw inflammation, spontaneous running wheel performance, AUC; type: in vivo, C57/B6 Mäuse
Description: Das Versuchstier hat in seinem Haltungskäfig Zugang zu einem Laufrad, dessen Umdrehungen elektronisch registriert werden. Die C57/B6 Mäuse benutzen in den Nachtstunden freiwillig das Laufrad und legen im Mittel nach einer einwöchigen Gewöhnungsphase 4100 Meter/Nacht zurück. Nach Zymosan Injektion ist die nächtliche Laufstrecke verkürzt. Diese Abnahme der Laufleistung gilt als Parameter für entzündungsschmerzbedingte Funktionseinschränkung. Versuchsdurchführung: Die Laufstrecke/24 Std. wurde nach einer Eingewöhnungsphase eine Woche lang zur Bestimmung der Baseline gemessen. Dann wurde in Kurzzeitnarkose mit Isofluran dem Versuchstier 25 µl einer Suspension, die […] Zymosan enthielt, in die rechte Hinterpfote injiziert. Anschließend wurde Laufstrecke/24 Std. während der nächsten sieben Tage ermittelt. In der Auswertung wurde die Fläche unter der Kurve der Laufstreckenwerte bestimmt (AUC, Tab. 7): je kleiner die AUC, desto geringer die Laufleistung in der Woche nach Zymosan Injektion. […] Die Substanzgabe wurde am Tag 1 nach Zymosan Injektion begonnen.

[4] = Versuch 1, 30-60 min nach K/C-Injektion
[5] = Versuch 1, 60-120 min nach K/C-Injektion
[6] = Versuch 1, 120-180 min nach K/C-Injektion
[7] = Versuch 2, 30-60 min nach K/C-Injektion
[8] = Versuch 2, 120-180 min nach K/C-Injektion
[9] = Versuch 2, 180-240 min nach K/C-Injektion
[10] = 7 days after Zymosan, 200 mg/kg twice daily

2-(2-Methylamino-pyrimidin-4-yl)-1 H-benzoimidazol-5-carbonsäure ((S)1-carbamoyl-2- diphenylamin-ethyl)-amid [Verbindung 22]
Wirkung im Modell 2 [1]: gute Wirkung | Neuronale Antworten vor und während Kniegelenksentzündung, Nicht-noxische Reizung am Kniegelenk [1, 4]: -34,1 imp/15s | Neuronale Antworten vor und während Kniegelenksentzündung, Noxische Reizung am Kniegelenk [1, 4]: -109,1 imp/15s | Neuronale Antworten vor und während Kniegelenksentzündung, Nicht-noxische Reizung am Kniegelenk [1, 5]: -37,2 imp/15s | Neuronale Antworten vor und während Kniegelenksentzündung, Noxische Reizung am Kniegelenk [1, 5]: -101,1 imp/15s | Neuronale Antworten vor und während Kniegelenksentzündung, Nicht-noxische Reizung am Kniegelenk [1, 6]: -32,1 imp/15s | Neuronale Antworten vor und während Kniegelenksentzündung, Noxische Reizung am Kniegelenk [1, 6]: -37,8 imp/15s | Neuronale Antworten vor und während Kniegelenksentzündung, Nicht-noxische Reizung am Kniegelenk ([1]; Versuch 1, Baseline): 0 imp/15s | Neuronale Antworten vor und während Kniegelenksentzündung, Noxische Reizung am Kniegelenk ([1]; Versuch 1, Baseline): 0 imp/15s | Neuronale Antworten vor und während Kniegelenksentzündung, Nicht-noxische Reizung am Kniegelenk [1, 7]: -30,6 imp/15s | Neuronale Antworten vor und während Kniegelenksentzündung, Noxische Reizung am Kniegelenk [1, 7]: -9,2 imp/15s | Neuronale Antworten vor und während Kniegelenksentzündung, Nicht-noxische Reizung am Kniegelenk [1, 8]: 50,3 imp/15s | Neuronale Antworten vor und während Kniegelenksentzündung, Noxische Reizung am Kniegelenk [1, 8]: 60 imp/15s | Neuronale Antworten vor und während Kniegelenksentzündung, Nicht-noxische Reizung am Kniegelenk [1, 9]: 68,7 imp/15s | Neuronale Antworten vor und während Kniegelenksentzündung, Noxische Reizung am Kniegelenk [1, 9]: 96,7 imp/15s | Neuronale Antworten vor und während Kniegelenksentzündung, Nicht-noxische Reizung am Kniegelenk ([1]; Versuch 2, Baseline): 0 imp/15s | Neuronale Antworten vor und während Kniegelenksentzündung, Noxische Reizung am Kniegelenk ([1]; Versuch 2, Baseline): 0 imp/15s

Cc1ccc(-c2cc(C(F)(F)F)nn2-c2ccc(S(N)(=O)=O)cc2)cc1 [Celecoxib, reference compound]
AUC Mittelwert [Maß für Hyperalgesie] ([2]; 14 days after Zymosan, 25 mg/kg twice daily): 51.5

CC(=O)Nc1ccc(O)cc1 [Paracetamol, reference compound]
Statistischer Unterschied gegenüber Vehikel ([2]; thermische Hyperalgesie AUC, 7 days, 200 mg/kg twice daily): ja | AUC Mittelwert [Maß für Hyperalgesie] [2, 10]: 24.6 | AUC Mittelwert (Laufradaktivität) [3, 10]: 187.2 | Laufleistung nach Zymosan Injektion gegenüber der Vehikelgruppe ([3]; 7 days, twice daily): keine Verbesserung gegenüber der Vehikelgruppe | Statistischer Unterschied gegenüber Vehikel ([3]; Laufradaktivität AUC, 7 days, 200 mg/kg twice daily): nein
